Like-named read-outs stand apart in the source and are kept apart here.
Key:
Yeast α-glucosidase = assay: In vitro α-glucosidase inhibitory activity assay; format: biochemical; conditions: for IC50: mean ± SD of triplicate experiments; for α-glucosidase inhibitory activity (in words): under the tested concentration
Protocol: Enzyme inhibition studies were carried out spectrophotometrically in a 96-well micro-plate reader using a procedure reported by Li et al..

PTP1B [1] = target: T1, PTP1B (Homo sapiens, UniProt P18031); assay: Enzyme kinetic analysis towards PTP1B (Lineweaver-Burk plot and secondary plots); format: biochemical
T1 sequence (P18031 1-322): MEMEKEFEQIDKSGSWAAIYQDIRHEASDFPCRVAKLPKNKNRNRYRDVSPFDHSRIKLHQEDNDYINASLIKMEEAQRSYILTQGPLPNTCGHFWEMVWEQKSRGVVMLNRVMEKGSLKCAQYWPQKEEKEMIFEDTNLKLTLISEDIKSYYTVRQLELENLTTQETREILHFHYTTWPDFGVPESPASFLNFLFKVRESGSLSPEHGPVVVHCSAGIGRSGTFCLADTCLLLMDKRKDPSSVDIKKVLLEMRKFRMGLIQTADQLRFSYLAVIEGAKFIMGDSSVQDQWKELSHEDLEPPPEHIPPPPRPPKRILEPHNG
Protocol: The inhibition constant (Ki) and inhibition mode for the inhibition of PTP1B was calculated by the Lineweaver-Burk plot and its secondary plot of the slope and the y-intercept of compounds [49, 50]. […] Graphs were generated using SigmaPlot 12.0 (Systat Software Inc., San Jose, CA, USA).

[2] = target: T2, truncated form of human recombinant PTP1B (amino acid 1-322) (Homo sapiens, UniProt P18031); assay: In vitro PTP1B inhibitory activity assay (pNPP substrate); conditions: for IC50: mean ± SD of triplicate experiments, pNPP substrate
T2 sequence (P18031 1-322): T1 sequence (P18031 1-322)
Protocol: A truncated form of human recombinant PTP1B (amino acid 1-322) was purchased from Enzo Life Sciences (Farmingdale, NY, USA) and dithiothreitol (DTT) was purchased from Bio-Rad Laboratories (Hercules, CA, USA). All other chemicals and solvents were purchased from E. Merck, Fluka, and Sigma-Aldrich, unless otherwise stated.
The inhibitory activity of isolated compounds against truncated form of human recombinant PTP1B was evaluated using pNPP as a substrate [48]. The amount of p-nitrophenyl produced after enzymatic dephosphorylation of pNPP was estimated by measuring the absorbance at 405 nm using a micro-plate spectrophotometer (Molecular Devices, Sunnyvale, CA, USA).

[3] = test system: streptozotocin-induced Sprague-Dawley rats; conditions: fucosterol from Pelvetia siliquosa; cited from earlier work
PTP1B [4] = conditions: in vitro; cited from earlier work
[5] = test system: insulin-resistant HepG2 cells; conditions: cited from earlier work

Structure (SMILES)	IC50 (Yeast α-glucosidase) [µM]	IC50 ([2]; IC50 PTP1B) [µM]	further results
CC(C)C1(CC[C@@H](C)[C@H]2CCC3C4CC=C5C[C@@H](O)CC[C@]5(C)C4CC[C@@]32C)OC1C (mixture of isomers) [Compound 6, 24R,28R and 24S,28R-epoxy-24-ethylcholesterol]	> 150	16.7 ± 0.36	Enzyme Kinetics Inhibition Type (PTP1B) (PTP1B [1]): Non-competitive; times stronger PTP1B inhibitory activity than 5 ([2]; ratio of IC50 versus fucosterol (5)): 3 times
CCC/C=C\CCCCCCCCCCC(=O)O [Compound 1, (Z)-hexadec-12-enoic acid]	48.1 ± 3.37	6.59 ± 0.09	
CCCCCCCCCCCCCCCC(=O)O [Compound 2, palmitic acid]	93.6 ± 3.68	49.4 ± 1.39	
CCCCCCCC/C=C\CCCCCCCC(=O)O [Compound 3, (Z)-octaec-9-enoic acid]	113 ± 2.47	13.7 ± 0.49	
C=CC(O)(CCC(C)C1CCC2C3CC=C4CC(O)CCC4(C)C3CCC12C)C(C)C (stereo not drawn) [Compound 4, 24R and 24S-saringosterol]	> 150	> 150	PTP1B inhibitory activity (in words) ([2]; under the tested concentration): no activity
C/C=C(\CC[C@@H](C)[C@H]1CC[C@H]2[C@@H]3CC=C4C[C@@H](O)CC[C@]4(C)[C@H]3CC[C@]12C)C(C)C [Compound 5, fucosterol]	> 150	50.6 ± 1.86	anti-diabetic activity [3]: anti-diabetic activity; PTP1B inhibition type (literature) (PTP1B [4]): non-competitive; Enzyme Kinetics Inhibition Type (PTP1B) (PTP1B [1]): non-competitive; effect on insulin resistance [5]: improved insulin resistance
CC/C=C\C/C=C\C/C=C\CCCCCCC(=O)O [Compound 7, (8Z,11Z,14Z)-heptadeca-8,11,14-trienoic acid]	> 200	4.86 ± 1.36	
CCCC/C=C\C/C=C\C/C=C\CCCCCC(=O)O [Compound 8, (7Z,10Z,13Z)-octadeca-7,10,13-trienoic acid]	112 ± 1.44	13.58 ± 0.1	
CCCCCC\C=C/C=C\C=C/C=C\CCCCCC(=O)O [Compound 9, (7Z,9Z,11Z,13Z)-icosa-7,9,11,13-tetraenoic acid]	34.9 ± 2.39	10.7 ± 0.17	
CC/C=C\C/C=C\C/C=C\C/C=C\CCCCC(=O)O [Compound 10, (6Z,9Z,12Z,15Z)-octadeca-6,9,12,15-tetraenoic acid]	> 200	16.43 ± 0.07	
CC/C=C\C/C=C\C/C=C\CCCCCCC(=O)O [Compound 12, (8Z,11Z,14Z)-heptadeca-8,11,14-trienoic acid]	43.9 ± 0.77	11.5 ± 0.52	
C=C(COC(=O)CCCCCC(=O)OCC(O)COC(=O)CCC/C=C\C/C=C\C/C=C\CCCCCCCC)C(=O)O (stereo not drawn) [Compound 13, 2-(7′-(2″-hydroxy-3″-((5Z,8Z,11Z)-icosatrienoyloxy)propoxy)-7′-oxoheptanoyl)oxymethylpropenoic acid]	> 150	4.92 ± 0.01	Enzyme Kinetics Inhibition Type (PTP1B) (PTP1B [1]): Non-competitive
COc1cc([C@H]2Oc3c(O)cc(CCCO)cc3[C@@H]2CO)ccc1O [Compound 14, cedrusin]	134 ± 3.86	174 ± 5.44	
COc1cc(C(O)C(CO)Oc2ccc(CCCO)cc2O)ccc1O (stereo not drawn) [Compound 15, 1-(4-hydroxy-3-methoxyphenyl)-2-[2-hydroxy-4-(3-hydroxypropyl)phenoxy]-1,3-propanediol]	> 250	> 400	
OCC1OC(OCc2ccccc2)C(O)C(O)C1O (stereo not drawn) [Compound 16, benzyl alcohol alloside]	> 250	> 400	
CC1(C)CC2CC(C)(O2)/C1=C/C(=O)O (stereo not drawn) [Compound 17, madhusic acid A]	> 300		IC50 ([2]; read-out: IC50 PTP1B): > 400 µM
CC1(C)[C@@H](O[C@H]2O[C@H](C(=O)O)[C@@H](O)[C@H](O)[C@H]2O[C@@H]2O[C@H](C(=O)O)[C@@H](O)[C@H](O)[C@H]2O)CC[C@]2(C)[C@H]3C(=O)C=C4[C@@H]5C[C@@](C)(C(=O)O)CC[C@]5(C)CC[C@@]4(C)[C@]3(C)CC[C@@H]12 [Compound 18, 18β-glycyrrhetinic acid-3-O-β-D-glucuronopyranosyl-1(→2)-β-D-glucuronide]	> 150	110.3 ± 0.39	α-glucosidase inhibitory activity (in words) (Yeast α-glucosidase): no activity
COC(=O)C1OC(OC2CCC3(C)C(CCC4(C)C3C(=O)C=C3C5CC(C)(C(=O)O)CCC5(C)CCC34C)C2(C)C)C(OC2OC(C(=O)O)C(O)C(O)C2O)C(O)C1O [Compound 19, 18β-glycyrrhetinic acid-3-O-β-D-glucuronopyranosyl-1(→2)-β-D-glucuronide-6’-methyl ester]	> 150		α-glucosidase inhibitory activity (in words) (Yeast α-glucosidase): no activity; times stronger PTP1B inhibition than compound 18 ([2]; ratio of IC50 versus glycyrrhizin (18)): 2.2 times
CC(=O)C=C=C1C(C)(C)CC(OC(C)=O)CC1(C)O [Compound 20, (3R)-4-[(2R,4S)-4-acetoxy-2-hydroxy-2,6,6-trimethylcyclohexylidene]but-3-en-2-one]	> 250	323.2 ± 0.84	
NCCc1ccc(O)cc1 [Compound 21, tyramine]	273 ± 5.65	188 ± 3.21	
CC1(C)[C@@H](O)CC[C@]2(C)[C@H]3C(=O)C=C4[C@H]5C[C@@](C)(C(=O)O)CC[C@]5(C)CC[C@@]4(C)[C@]3(C)CC[C@@H]12 [Compound 22, 18α-glycyrrhetinic acid]	113.3 ± 0.7		Enzyme Kinetics Inhibition Type (PTP1B) (PTP1B [1]): Competitive
CC1(C)C2CC[C@]3(C)[C@H](C(=O)C=C4[C@@H]5C[C@@](C)(C(=O)O)CC[C@]5(C)CC[C@]43C)[C@@]2(C)CC[C@@H]1O (stereo partly drawn) [Compound 23, 18β-glycyrrhetinic acid]	129 ± 3.88		Enzyme Kinetics Inhibition Type (PTP1B) (PTP1B [1]): Competitive

Source: paper PMC6562952, “Experimental and Computational Study to Reveal the Potential of Non-Polar Constituents from Hizikia fusiformis as Dual Protein Tyrosine Phosphatase 1B and α-Glucosidase Inhibitors” (Marine Drugs, 2019)
